Data set [1] deals with cGAS (Homo sapiens, UniProt Q8N884). The experiment in a line: Transcreener cGAS enzymatic assay (FP). It is filed as biochemical. As to the method: Structural, biochemical and biophysical analysis and selectivity profiling: Potency and MOA studies, including Mn^2+ sensitivity, were performed using the Transcreener cGAS enzymatic assay, which is manufactured at BellBrook Labs (Fitchburg, Wisconsin, USA). This homogenous cGAS enzymatic assay was developed with fluorescence polarization (FP) and time-resolved Forster resonance energy transfer (TR-FRET) readouts, as described in International Patent Publication WO 2020/142729, incorporated by reference herein in its entirety. Plates are read on a PHERAstar FSX multimode reader (BMG). The compounds of the disclosure were tested for inhibition of cGAS ([…]) using this cGAS enzymatic assay under standard conditions (100 μM ATP and GTP, 62.5 nM bp ISD, 60 minute reactions), high ATP and GTP (1 mM) to mimic physiological conditions, in the presence of 200 μM MnCl2, and with mouse cGAS under standard conditions.
The IC50 values for FP under standard and under physiological conditions were determined for several exemplary compounds of the invention. The relative activities for FP Standard IC50 are shown in Table 2 below, where A represents <50 nM; B represents 50-100 nM; C represents 100-200 nM; D represents 200 nM-1μM; and E represents 1-10 μM. For the relative activities for FP Physiological IC50, A′ represents <200 nM; B′ represents 200-500 nM; C′ represents 500 nM-1μM; D′ represents 1-5 μM; and E′ represents >5 μM.

The subject of data set [2] is MDCK cells expressing human MDR1 (P-glycoprotein). Put plainly: MDCK-MDR1 permeability A→B. The data set is classed as in vitro ADME, Canine. The procedure:
ADME studies: Compound A and the compounds of the disclosure were tested for aqueous solubility (KSOL), metabolic stability (human and mouse […]) and permeability (Caco-2 and/or MDR1-MDCK cells) to provide an initial indication of oral bioavailability.
The favorable physicochemical properties are reflected in promising results in in vitro ADME tests. […] Metabolic stability, which was routinely measured with mouse and human hepatocytes, is outstanding, with t, greater than 2 hours for all of the compounds of the disclosure in which it has been measured. Cell permeability was measured using MDCK cells expressing human MDR1 (P-glycoprotein) to assess passive permeability as well as active transport out of the cell. […] Numerous compounds in Table 1 meet these permeability criteria, which is consistent with their design for TPSA <140 Å^2 and increased lipophilicity.
The MDCK-MDR1 permeability A ->B is shown in Table 2 below, where A represents 5-10 cm/s×10^−6; B represents 1-5 cm/s×10^−6; and C represents <1 cm/ss×10^−6. The metabolic stability half time, in both mouse and human hepatocytes, is also shown in Table 2 below, where A′ represents 100-200 minutes; B′ represents 200-300 minutes; and C′ represents >300 minutes.

Data set [3] deals with IFNβ production in THP-1 cells. The experiment in a line: IFNβ ELISA in THP-1 cells. The data set is classed as cell-based, human. The settings on record: Homo sapiens; THP-1 cells. An excerpt:
Cellular assays: The human monocyte cell line THP-1 and human primary PBMCs were used to evaluate the cellular activity of compounds with good biochemical potency. These cells produce a robust cGAS/STING-dependent type I IFN response when stimulated with dsDNA and other pathogen-associated molecular patterns, which was detected using a standard ELISA for IFNβ (R&D Systems). The TBK1 inhibitor, BX-795, which acts downstream of cGAS/STING, was used as a probe.
CETSA was also used to confirm that the compounds are binding to cGAS in cells; THP-1 cells are used for this analysis. Compounds were tested in dose response mode by incubating with cells for 1.5 hours at 37° C., followed by pelleting and re-suspending in PBS, heating to 51.5° C. for 3 min and cooling to room temp. Cells were then lysed, debris, including denatured cGAS, was pelleted and the supernatant was analyzed for soluble cGAS by Western Blot using anti-cGAS primary Ab (Cell Signaling). Band intensity was analyzed using Image J software. Stimulation with cGAMP directly activates STING, circumventing cGAS; this was used to determine if compounds had effects on downstream components of cGAS/STING signaling. The IFN-6 ELISA was used as the primary measure of cellular potency and selectivity (Table 3) and used the reporter gene assays for assessing off-target activity with other pattern recognition receptors.
The ICso values for IFNB ELISA stimulated with THP-1, PBMC, DNA, and cGAMP were determined for several exemplary compounds of the invention, and are provided in Table 3 where A represents <1 μM; B represents 1-2.5 μM; C represents 2.5-10 μM; D represents 10-20 μM; and E represents >20 μM.
(In general: ELISA stands for enzyme-linked immunosorbent assay.)

[4] abbreviates: high ATP and GTP (1 mM) to mimic physiological conditions, read-out: IC50 FP Physiological.
Where [5] appears, read: standard conditions: 100 μM ATP and GTP, 62.5 nM bp ISD, 60 minute reactions, read-out: IC50 FP Standard.

Read-outs that look alike come from different tables or passages of the source. A value given as a limit tells only on which side of the number the result lay.

Sequence of cGAS (Q8N884 whole entry): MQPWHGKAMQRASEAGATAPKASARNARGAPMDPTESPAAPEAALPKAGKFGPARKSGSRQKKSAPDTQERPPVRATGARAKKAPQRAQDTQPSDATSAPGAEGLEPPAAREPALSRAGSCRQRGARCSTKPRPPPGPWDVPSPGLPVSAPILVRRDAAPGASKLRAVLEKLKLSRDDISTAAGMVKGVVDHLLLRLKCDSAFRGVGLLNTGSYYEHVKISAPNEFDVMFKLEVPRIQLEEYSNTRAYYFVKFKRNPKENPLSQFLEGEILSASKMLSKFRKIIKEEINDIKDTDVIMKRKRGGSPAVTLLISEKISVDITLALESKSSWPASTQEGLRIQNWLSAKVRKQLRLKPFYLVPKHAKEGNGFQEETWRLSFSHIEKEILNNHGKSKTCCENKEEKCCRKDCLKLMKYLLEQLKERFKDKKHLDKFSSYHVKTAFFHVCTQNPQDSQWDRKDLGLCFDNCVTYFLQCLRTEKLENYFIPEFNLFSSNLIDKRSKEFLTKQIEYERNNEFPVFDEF

In general, IC50 refers to the concentration that gives 50% inhibition. `Cc1nc(N2C[C@@H](CC(=O)Nc3ccc(N4CCNCC4)cc3)C[C@H]2C(=O)O)c2oc3ccccc3c2n1` [Compound 8, (2S,4R)-1-(2-methylbenzofuro[3,2-d]pyrimidin-4-yl)-4-(2-oxo-2-((4-(piperazin-1-yl)phenyl)amino)ethyl)pyrrolidine-2-carboxylic acid]: the values for the IC50 in data set [1] (setting [4]), in data set [1] (setting [5]) and in data set [3] were above 5000 nM, 1000 to 10000 nM and above 20000 nM, respectively. Besides, the “MDCK-MDR Permeability A→B” value in data set [2] was “C (C represents <1 cm/ss×10^−6)”.

As for `Cc1nc(N2C[C@@H](CC(=O)Nc3ccc(N4CCN(C)CC4)cc3)C[C@H]2C(=O)O)c2oc3ccccc3c2n1` [Compound 9, (2S,4R)-1-(2-methylbenzofuro[3,2-d]pyrimidin-4-yl)-4-(2-((4-(4-methylpiperazin-1-yl)phenyl)amino)-2-oxoethyl)pyrrolidine-2-carboxylic acid], the values for the IC50 in data set [1] (setting [4]), in data set [1] (setting [5]) and in data set [3] were above 5000 nM, 1000 to 10000 nM and above 20000 nM, respectively. Further, the “MDCK-MDR Permeability A→B” value in data set [2] was “C (C represents <1 cm/ss×10^−6)”.

Consider `Cc1nc(N2C[C@@H](CC(=O)Nc3ccc(-c4cn[nH]c4)cc3)C[C@H]2C(=O)O)c2oc3ccccc3c2n1` [Compound 10, (2S,4R)-4-(2-((4-(1H-pyrazol-4-yl)phenyl)amino)-2-oxoethyl)-1-(2-methylbenzofuro[3,2-d]pyrimidin-4-yl)pyrrolidine-2-carboxylic acid], for which the IC50 in data set [1] (setting [4]) is 200 to 500 nM; in data set [1] (setting [5]), below 50 nM; in data set [3], above 20000 nM. Moreover, the “MDCK-MDR Permeability A→B” value in data set [2] is reported as “C (C represents <1 cm/ss×10^−6)”.

For the compound `Cc1nc(N2C[C@@H](CC(=O)Nc3cccc(-c4cn[nH]c4)c3)C[C@H]2C(=O)O)c2oc3ccccc3c2n1` [Compound 11, (25,4R)-4-(2-((3-(1H-pyrazol-4-yl)phenyl)amino)-2-oxoethyl)-1-(2-methylbenzofuro[3,2-d]pyrimidin-4-yl)pyrrolidine-2-carboxylic acid], the results for the concentration for half-maximal inhibition (IC50) in data set [1] (setting [4]), in data set [1] (setting [5]) and in data set [3] were 200 to 500 nM, 50 to 100 nM and above 20000 nM, respectively. In data set [2], the “MDCK-MDR Permeability A→B” value was “C (C represents <1 cm/ss×10^−6)”.

As to `COc1cccc(NC(=O)C[C@H]2C[C@@H](C(=O)O)N(c3nc(C)nc4c3oc3ccccc34)C2)c1` [Compound 13, (2S,4R)-4-(2-((3-methoxyphenyl)amino)-2-oxoethyl)-1-(2-methylbenzofuro[3,2-d]pyrimidin-4-yl)pyrrolidine-2-carboxylic acid], the figures for the IC50 in data set [1] (setting [4]), in data set [1] (setting [5]) and in data set [3] were 1000 to 5000 nM, 200 to 1000 nM and 10000 to 20000 nM, respectively. For the same compound, the “MDCK-MDR Permeability A→B” value in data set [2] is “C (C represents <1 cm/ss×10^−6)”.

Regarding `COc1ccccc1NC(=O)C[C@H]1C[C@@H](C(=O)O)N(c2nc(C)nc3c2oc2ccccc23)C1` [Compound 14, (28.4R)-4-(2-((2-methoxyphenyl)amino)-2-oxoethyl)-1-(2-methylbenzofuro[3,2-d]pyrimidin-4-yl)pyrrolidine-2-carboxylic acid], the IC50 is above 5000 nM in data set [1] (setting [4]), 1000 to 10000 nM in data set [1] (setting [5]) and above 20000 nM in data set [3]. Besides, the “MDCK-MDR Permeability A→B” value in data set [2] is recorded as “C (C represents <1 cm/ss×10^−6)”.

For the compound `Cc1nc(N2C[C@@H](CC(=O)Nc3ccc(-c4ccc(O)nc4)cc3)C[C@H]2C(=O)O)c2oc3ccccc3c2n1` [Compound 47, (28.4R)-4-(2-((4-(6-hydroxypyridin-3-yl)phenyl)amino)-2-oxoethyl)-1-(2-methylbenzofuro[3,2-d]pyrimidin-4-yl)pyrrolidine-2-carboxylic acid], the IC50 is 1000 to 5000 nM in data set [1] (setting [4]) and 100 to 200 nM in data set [1] (setting [5]).

As to `Cc1nc(N2C[C@@H](CC(=O)Nc3ccc(-c4ccnc(O)c4)cc3)C[C@H]2C(=O)O)c2oc3ccccc3c2n1` [Compound 48, (2S,4R)-4-(2-((4-(2-hydroxypyridin-4-yl)phenyl)amino)-2-oxoethyl)-1-(2-methylbenzofuro[3,2-d]pyrimidin-4-yl)pyrrolidine-2-carboxylic acid], the half-maximal inhibitory concentration (IC50) in data set [1] (setting [4]) is 500 to 1000 nM; in data set [1] (setting [5]) it was below 50 nM.

For the compound `Cc1nc(N2C[C@@H](CC(=O)Nc3cccc(-c4c[nH]cn4)c3)C[C@H]2C(=O)O)c2oc3ccccc3c2n1` [Compound 49, (28,4R)-4-(2-((3-(1H-imidazol-4-yl)phenyl)amino)-2-oxoethyl)-1-(2-methylbenzofuro[3,2-d]pyrimidin-4-yl)pyrrolidine-2-carboxylic acid], the half-inhibitory concentration (IC50) is 500 to 1000 nM in data set [1] (setting [4]), 100 to 200 nM in data set [1] (setting [5]) and above 20000 nM in data set [3].

With `Cc1nc(N2C[C@@H](CC(=O)Nc3ccc(N4CCOC4=O)cc3)C[C@H]2C(=O)O)c2oc3ccccc3c2n1` [Compound 52, (2S,4R)-1-(2-methylbenzofuro[3,2-d]pyrimidin-4-yl)-4-(2-oxo-2-((4-(2-oxooxazolidin-3-yl)phenyl)amino)ethyl)pyrrolidine-2-carboxylic acid], the 50% inhibitory concentration (IC50) in data set [1] (setting [4]) was in the range of 1000 to 5000 nM; in data set [1] (setting [5]) it was 100 to 200 nM.

With `Cc1nc(N2C[C@@H](CC(=O)Nc3ccc(N4CCC(O)CC4)cc3)C[C@H]2C(=O)O)c2oc3ccccc3c2n1` [Compound 53, (2S,4R)-4-(2-((4-(4-hydroxypiperidin-1-yl)phenyl)amino)-2-oxoethyl)-1-(2-methylbenzofuro[3,2-d]pyrimidin-4-yl)pyrrolidine-2-carboxylic acid], the values for the IC50 in data set [1] (setting [4]), in data set [1] (setting [5]) and in data set [3] were 1000 to 5000 nM, 200 to 1000 nM and above 20000 nM, respectively.

As for `Cc1nc(N2C[C@@H](CC(=O)Nc3ccc(-c4cccc(CO)c4)cc3)C[C@H]2C(=O)O)c2oc3ccccc3c2n1` [Compound 59, (2S,4R)-4-(2-((3′-(hydroxymethyl)-[1,1′-biphenyl]-4-yl)amino)-2-oxoethyl)-1-(2-methylbenzofuro[3,2-d]pyrimidin-4-yl)pyrrolidine-2-carboxylic acid], the half-inhibitory concentration (IC50) was 500 to 1000 nM in data set [1] (setting [4]) and below 50 nM in data set [1] (setting [5]).

On to `Cc1nc(N2C[C@@H](CC(=O)Nc3ccc(-c4ccc(CO)cc4)cc3)C[C@H]2C(=O)O)c2oc3ccccc3c2n1` [Compound 60, (28.4R)-4-(2-((4′-(hydroxymethyl)-[1,1′-biphenyl]-4-yl)amino)-2-oxoethyl)-1-(2-methylbenzofuro[3,2-d]pyrimidin-4-yl)pyrrolidine-2-carboxylic acid], for which the IC50 in data set [1] (setting [4]) is 200 to 500 nM; in data set [1] (setting [5]), below 50 nM.

For `Cc1nc(N2C[C@@H](CC(=O)Nc3ccc(-c4ccccc4)nn3)C[C@H]2C(=O)O)c2oc3ccccc3c2n1` [Compound 64, (2S,4R)-1-(2-methylbenzofuro[3,2-d]pyrimidin-4-yl)-4-(2-oxo-2-((6-phenylpyridazin-3-yl)amino)ethyl)pyrrolidine-2-carboxylic acid], the IC50 in data set [1] (setting [4]) was in the range of 1000 to 5000 nM; in data set [1] (setting [5]), 200 to 1000 nM.

`Cc1nc(N2C[C@@H](CC(=O)Nc3cnc(-c4ccccc4)nc3)C[C@H]2C(=O)O)c2oc3ccccc3c2n1` [Compound 65, (2S,4R)-1-(2-methylbenzofuro[3,2-d]pyrimidin-4-yl)-4-(2-oxo-2-((2-phenylpyrimidin-5-yl)amino)ethyl)pyrrolidine-2-carboxylic acid]: the IC50 in data set [1] (setting [4]) was in the range of 500 to 1000 nM; in data set [1] (setting [5]) it was 50 to 100 nM.
